This note sets out measurements from US20110015162A1, “15,16-Methylene-17-hydroxy-19-nor-21-carboxylic acid-steroid Y-lactone derivative, use thereof and medicinal products containing the derivative” (Bayer Schering Pharma Aktiengesellschaft, priority 2007, published 2011).

Where two headings read alike, the source gives them in different places.

In assay [1] the target is T1, progesterone receptor (Homo sapiens, UniProt P06401).
T1 construct: made in house; host or cells: Hi5 insect cells (cytosol)
T1 sequence (P06401 1-933): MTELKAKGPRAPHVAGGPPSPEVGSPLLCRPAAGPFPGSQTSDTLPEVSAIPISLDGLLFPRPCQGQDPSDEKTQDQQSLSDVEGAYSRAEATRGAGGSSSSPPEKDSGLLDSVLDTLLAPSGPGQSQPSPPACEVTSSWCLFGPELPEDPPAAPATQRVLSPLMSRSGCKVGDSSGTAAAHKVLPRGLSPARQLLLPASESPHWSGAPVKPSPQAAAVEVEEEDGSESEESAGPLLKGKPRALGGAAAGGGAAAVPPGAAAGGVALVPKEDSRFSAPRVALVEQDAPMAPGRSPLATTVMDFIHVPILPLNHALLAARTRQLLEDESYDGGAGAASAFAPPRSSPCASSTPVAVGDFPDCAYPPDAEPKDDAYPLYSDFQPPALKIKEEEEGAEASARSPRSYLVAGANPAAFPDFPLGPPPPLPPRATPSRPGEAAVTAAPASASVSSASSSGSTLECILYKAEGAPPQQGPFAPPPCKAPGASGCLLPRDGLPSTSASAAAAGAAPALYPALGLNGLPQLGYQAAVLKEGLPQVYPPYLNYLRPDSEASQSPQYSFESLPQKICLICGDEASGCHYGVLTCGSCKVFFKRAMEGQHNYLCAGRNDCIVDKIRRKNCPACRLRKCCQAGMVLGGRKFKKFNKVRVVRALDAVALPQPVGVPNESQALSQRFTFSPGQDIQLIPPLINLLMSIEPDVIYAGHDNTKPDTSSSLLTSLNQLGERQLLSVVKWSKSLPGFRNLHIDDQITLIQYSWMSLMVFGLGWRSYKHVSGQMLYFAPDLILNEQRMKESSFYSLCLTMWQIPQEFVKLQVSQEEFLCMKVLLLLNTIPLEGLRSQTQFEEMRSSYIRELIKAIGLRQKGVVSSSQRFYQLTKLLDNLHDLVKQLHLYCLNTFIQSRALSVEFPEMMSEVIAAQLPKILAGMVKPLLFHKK
As to the kind of experiment: Progesterone receptor binding test. To be noted: for Progesterone receptor (PR) Competition factor: CF 1 = affinity of progesterone, CF >1 lower affinity, <1 higher affinity; for CF PR/CF MR: ratio of competition factors CF(PR) and CF(MR). Here is the method: 1. Progesterone Receptor Binding Test:
Using cytosol from progesterone receptor-expressing insect cells (Hi5), competitive binding to the progesterone receptor was determined from the ability to displace ^3H-progesterone as reference substance from the receptor.

The target in assay [2] is T2, mineralocorticoid receptor (Homo sapiens, UniProt P08235).
T2 sequence (P08235 1-984): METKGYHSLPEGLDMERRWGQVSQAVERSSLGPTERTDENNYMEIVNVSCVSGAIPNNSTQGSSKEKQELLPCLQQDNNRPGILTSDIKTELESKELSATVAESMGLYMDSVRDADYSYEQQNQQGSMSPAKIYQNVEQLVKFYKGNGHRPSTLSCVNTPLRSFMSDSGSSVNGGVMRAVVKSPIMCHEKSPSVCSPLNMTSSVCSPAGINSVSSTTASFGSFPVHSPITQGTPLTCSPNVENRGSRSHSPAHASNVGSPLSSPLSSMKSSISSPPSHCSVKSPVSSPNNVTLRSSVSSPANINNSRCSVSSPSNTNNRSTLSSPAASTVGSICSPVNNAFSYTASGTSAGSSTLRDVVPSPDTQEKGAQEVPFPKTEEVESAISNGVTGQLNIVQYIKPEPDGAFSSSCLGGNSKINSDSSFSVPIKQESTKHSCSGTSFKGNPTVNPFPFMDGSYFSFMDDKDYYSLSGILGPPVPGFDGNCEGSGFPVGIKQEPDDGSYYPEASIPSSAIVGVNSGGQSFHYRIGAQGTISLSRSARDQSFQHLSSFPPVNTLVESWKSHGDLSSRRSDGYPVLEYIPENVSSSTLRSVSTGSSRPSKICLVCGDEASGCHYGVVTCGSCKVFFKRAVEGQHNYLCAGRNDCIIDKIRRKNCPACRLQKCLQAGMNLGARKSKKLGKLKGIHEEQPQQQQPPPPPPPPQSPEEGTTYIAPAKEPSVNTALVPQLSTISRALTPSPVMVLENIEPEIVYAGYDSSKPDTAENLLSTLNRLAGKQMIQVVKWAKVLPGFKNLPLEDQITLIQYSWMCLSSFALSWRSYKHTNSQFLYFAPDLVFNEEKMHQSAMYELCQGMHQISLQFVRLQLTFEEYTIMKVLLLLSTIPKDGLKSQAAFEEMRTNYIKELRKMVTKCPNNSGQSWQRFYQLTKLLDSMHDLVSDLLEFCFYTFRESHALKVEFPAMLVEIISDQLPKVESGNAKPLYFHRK
As to the kind of experiment: Antimineralocorticoid action by transactivation test (MDCK reporter cells).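 On Emax: percent inhibition of the aldosterone-stimulated reporter signal.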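 On Mineralocorticoid receptor Antagonism efficacy: percent inhibition of the aldosterone-stimulated reporter signal.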 The class given is cell-based. Also noted: expressed in transfected cells; host or cells: MDCK cells. The settings on record: for Emax: read-out: Mineralocorticoid receptor Antagonism efficacy. Here is the method:
The test compounds were added eight hours later, and the cells were incubated with the compounds for 16 hours. The tests were carried out in triplicate. At the end of incubation the medium containing the effector was removed and replaced with lysis buffer. After luciferase assay substrate (Promega, #E1501) had been added, the 96-well plates were then put in a microplate luminometer (Pherastar, BMG Labtech), and the luminescence was measured. The IC50 values were evaluated using software for calculating dose-effect relations.
5. Determination of Antimineralocorticoid Action by Means of Transactivation Tests:
The antimineralocorticoid activity of the test substances was determined as for the transactivation tests described above.
The following modifications were undertaken: In this case reporter cell lines were used (MDCK cells) that express the human mineralocorticoid receptor, and transiently contain a reporter construct that contains luciferase under the control of a steroid hormone-responsive promoter.

Turning to `C[C@]12CC[C@H]3[C@@H](C=CC4=CC(=O)CC[C@@H]43)[C@@H]1[C@H]1C[C@H]1[C@@]21C=CC(=O)O1` [Example 13, 17β-Hydroxy-15α,16α-methylene-19-nor-17α-pregna-4,6,20(Z)-trien-3-one-21-carboxylic acid γ-lactone], in assay [1], the “Progesterone receptor (PR) Competition factor” value (“Progesterone receptor” below) stood at 7.89 and the “CF PR/CF MR” value worked out at 4.93. Further, in assay [1] (displacement of 3H-progesterone, cytosol from PR-expressing insect cells (Hi5), read-out: Progesterone receptor (PR) IC50), the IC50 was 190 nM. Besides, in assay [2] (MDCK cells, with 1 nM aldosterone, read-out: Mineralocorticoid receptor Antagonism IC50), the IC50 was found to be 12 nM. In addition, the Emax in assay [2] (MDCK cells, with 1 nM aldosterone) came out at 116%.

As to `C[C@@H]1CC2=CC(=O)CC[C@@H]2[C@H]2CC[C@@]3(C)[C@@H]([C@H]4C[C@H]4[C@@]34C=CC(=O)O4)[C@@H]21` [Example 14A, 17β-Hydroxy-7α-methyl-15α,16α-methylene-19-nor-17α-pregna-4,20(Z)-dien-3-one-21-carboxylic acid γ-lactone], in assay [1], the IC50 turned out to be 49 nM, the “Progesterone receptor” value amounted to 2.04 and the “CF PR/CF MR” value worked out at 1.57. The half-inhibitory concentration (IC50) in assay [2] was 3 nM. In addition, the Emax in assay [2] (MDCK) amounted to 83%.

In the case of `CC[C@@H]1CC2=CC(=O)CC[C@@H]2[C@H]2CC[C@@]3(C)[C@@H]([C@H]4C[C@H]4[C@@]34C=CC(=O)O4)[C@H]12` [Example 15A, 17β-Hydroxy-7α-ethyl-15α,16α-methylene-19-nor-17α-pregna-4,20(Z)-dien-3-one-21-carboxylic acid γ-lactone], in assay [1], the IC50 was 200 nM, the “Progesterone receptor” value is on record as 8.36 and the “CF PR/CF MR” value worked out at 10.45. It took 12 nM to reach half-maximal inhibition in assay [2] (IC50). Further, the Emax in assay [2] (MDCK) was 112%.

`C=C[C@@H]1CC2=CC(=O)CC[C@@H]2[C@H]2CC[C@@]3(C)[C@@H]([C@H]4C[C@H]4[C@@]34C=CC(=O)O4)[C@@H]21` [Example 16A, 17β-Hydroxy-7α-vinyl-15α,16α-methylene-19-nor-17α-pregna-4;20(Z)-dien-3-one-21-carboxylic acid γ-lactone]: in assay [1], the IC50 is 85 nM, the “Progesterone receptor” value was determined as 3.76 and the “CF PR/CF MR” value came to 1.88. The compound also displayed an IC50 in assay [2] of 95 nM. In addition, the Emax in assay [2] (MDCK) came to 103%.

Regarding `C[C@]12CC[C@H]3[C@H]([C@@H]1[C@H]1C[C@H]1[C@@]21C=CC(=O)O1)[C@H](C1CC1)CC1=CC(=O)CC[C@@H]13` [Example 17A, 17β-Hydroxy-7α-cyclopropyl-15α,16α-methylene-19-nor-17α-pregna-4,20(Z)-dien-3-one-21-carboxylic acid γ-lactone], in assay [1], the 50% inhibitory concentration (IC50) was 280 nM, the “Progesterone receptor” value is 12.24 and the “CF PR/CF MR” value was 4.71. Also, in assay [2], the IC50 stood at 89 nM. Besides, the Emax in assay [2] (MDCK) is 115%.

For `C[C@]12CC[C@H]3[C@@H](CCC4=C(Cl)C(=O)CC[C@@H]43)[C@@H]1[C@H]1C[C@H]1[C@@]21C=CC(=O)O1` [Example 18, 4-Chloro-17β-hydroxy-15α,16α-methylene-19-nor-17α-pregna-4,20(Z)-dien-3-one-21-carboxylic acid γ-lactone], in assay [1], the IC50 was found to be 400 nM, the “Progesterone receptor” value stood at 17.24 and the “CF PR/CF MR” value amounted to 0.49. Moreover, the half-maximal inhibitory concentration (IC50) in assay [2] amounted to 830 nM. Besides, in assay [2] (MDCK), the Emax stood at 37.3%.

In the case of `C[C@]12CC[C@H]3[C@@H](CCC4=CC(=O)CC[C@@H]43)[C@@H]1[C@@H]1C[C@@H]1[C@@]21C=CC(=O)O1` [Example 19, 17β-Hydroxy-15β,16β-methylene-19-nor-17α-pregna-4,20(Z)-dien-3-one-21-carboxylic acid γ-lactone], in assay [1], the IC50 is 25 nM, the “Progesterone receptor” value was 1.70 and the “CF PR/CF MR” value was found to be 0.01. The compound further showed an IC50 in assay [2] of 62 nM. For the same compound, in assay [2] (MDCK), the Emax was found to be 92.8%.

The term IC50 denotes the midpoint of a concentration-inhibition curve.
